PubChem BioAssay (NCI)
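In this assay, cells in 96-well plates receive the compound at five concentrations for 48 hours. Endpoints are linearly interpolated between the surrounding concentrations. The concentration for 50% growth inhibition is given as GI50. Definition used: TGI = concentration required for complete inhibition of growth.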

Tests used:
Assay in all cases: inhibition of tumour cell growth, NCI panel, 48 h
[1] = system: HOP-92 NSCLC
[2] = system: MDA-N
[3] = system: HOP-62 NSCLC
[4] = system: A549 NSCLC
[5] = system: EKVX NSCLC
[6] = system: SN12C renal
[7] = system: MDA-MB-435
[8] = system: HCT-15 colon
[9] = system: CCRF-CEM leukemia
[10] = system: MALME-3M melanoma

| Structure (SMILES) | TGI [1] [µM] | TGI [2] [µM] | TGI [3] [µM] | TGI [4] [µM] | TGI [5] [µM] | TGI [6] [µM] | TGI [7] [µM] | TGI [8] [µM] | TGI [9] [µM] | TGI [10] [µM] | GI50 [1] [µM] | GI50 [10] [µM] | GI50 [3] [µM] | GI50 [4] [µM] | GI50 [5] [µM] | GI50 [6] [µM] | GI50 [7] [µM] | GI50 [8] [µM] | GI50 [9] [µM] |
| --- | --- | --- | --- | --- | --- | --- | --- | --- | --- | --- | --- | --- | --- | --- | --- | --- | --- | --- | --- |
| CC1=CC(=O)C[C@]2(C)[C@@H](O)CC(C(C)CO)C[C@@H]12 (stereo not given in full) | > 100 | > 100 | > 100 | > 100 | > 100 | > 100 | > 100 | > 100 | – | – | – | – | – | – | – | – | – | – | – |
| CC1(C)CC(=O)C2=C(C1)OC1=C(CC(C)(C)CC1=O)C2c1ccccc1Cl (stereo not given) | > 100 | – | > 100 | > 100 | > 100 | > 100 | > 100 | > 100 | > 100 | > 100 | – | – | – | – | – | – | – | – | – |
| O=C(C(Cl)=C(Nc1ccccc1)Nc1ccccc1)C(Cl)Cl | 65.6 | – | 69.7 | > 100 | 70.2 | 79.7 | 39.8 | 34.1 | 77.6 | 45 | – | – | – | – | – | – | – | – | – |
| C=CC(C)(C)c1cc([C@@H]2COc3cc(O)ccc3C2=O)c(O)c(OC)c1OC | 21.6 | 26 | – | 52 | 58.3 | 31.3 | 21.5 | 32.8 | > 100 | 43.2 | – | – | – | – | – | – | – | – | – |
| O=C(Cl)c1cc([N+](=O)[O-])cc([N+](=O)[O-])c1 | > 100 | – | > 100 | > 100 | > 100 | – | – | > 100 | > 100 | > 100 | – | – | – | – | – | – | – | – | – |
| COC[C@H](Cc1ccccc1)N=Cc1ccccc1 | – | – | > 100 | > 100 | > 100 | > 100 | > 100 | > 100 | > 100 | > 100 | – | – | – | – | – | – | – | – | – |
| N#Cc1c(C#N)c(-c2ccco2)n(/N=C/c2ccco2)c1N | 61.2 | – | > 100 | > 100 | > 100 | > 100 | > 100 | > 100 | > 100 | > 100 | – | – | – | – | – | – | – | – | – |
| O=C(CSCC(=O)N/N=C\c1cc(Br)cc(Br)c1O)N/N=C\c1cc(Br)cc(Br)c1O | 79 | – | > 100 | > 100 | > 100 | > 100 | > 100 | > 100 | – | 42.5 | – | – | – | – | – | – | – | – | – |
| O=S(=O)(CC#CCS(=O)(=O)c1ccccc1)c1ccccc1 | 3.39 | 4.16 | 20.7 | 37.5 | 12.1 | 12.4 | 3.83 | 4 | – | 3.82 | – | – | – | – | – | – | – | – | – |
| CC(C)CCC[C@@H](C)[C@H]1CC[C@H]2[C@@H]3CC=C4CC(OCCCCN(O)CCCSC5OC(CO)C(O)C(O)C5O)CC[C@]4(C)[C@H]3CC[C@]12C (stereo not given in full) | > 100 | – | > 100 | > 100 | > 100 | > 100 | – | > 100 | 72 | – | – | – | – | – | – | – | – | – | – |
| COc1ccc2c(c1)CCC1C2CCC2(C)C1CC[C@@]2(O)CNC(=O)/C=C/c1ccc(O)c(O)c1 (stereo not given in full) | 14.7 | – | 79.1 | 29.3 | > 100 | 8.84 | 19.2 | 4.99 | – | 9.6 | 2.23 | 3.56 | 5.59 | 3.95 | 4.01 | 2.57 | 2.86 | 1.49 | – |
| Clc1ccc(CCn2ccc3ccccc32)c(Cl)c1 | > 100 | – | > 100 | > 100 | > 100 | > 100 | > 100 | > 100 | > 100 | > 100 | – | – | – | – | – | – | – | – | – |
| CN(C)CCCn1c2c(c3ccncc3c1=O)C(=O)c1ccccc1-2 | 2.39 | – | 20.6 | 38.6 | 48.3 | 19.1 | 4.15 | 11.9 | 13 | 2.5 | 0.155 | 0.978 | 0.862 | 1 | 7.91 | 0.958 | 1.55 | 0.513 | 0.77 |
| CCOC(=O)C1(C/C=C\CBr)CCCCCCC1=O (stereo not given) | – | > 100 | > 100 | > 100 | > 100 | > 100 | > 100 | > 100 | > 100 | > 100 | – | – | – | – | – | – | – | – | – |
| OB1OCc2ccccc21 | – | – | 62.9 | > 100 | – | > 100 | > 100 | > 100 | 54.9 | > 100 | – | – | – | – | – | – | – | – | – |
| CCC1OC(=O)C(C)C(OC2CC(C)(O)C(O)C(C)O2)C(C)C(O)C(C)(O)CC(C)C(=O)C(C)C(O)C1C (stereo not given) | > 300 | – | > 300 | > 300 | > 300 | > 300 | – | > 300 | > 300 | > 300 | – | – | – | – | – | – | – | – | – |
| CCCCCCCCCCCCCCCCCc1nc(C#N)c(N)o1 | > 100 | > 100 | > 100 | > 100 | > 100 | > 100 | > 100 | > 100 | > 100 | – | – | – | – | – | – | – | – | – | – |
| CC(C)(C)C(=O)Cc1cc2c(cc1C(=O)O)S(=O)(=O)NC(C(C)(C)C)=C2 | > 100 | – | > 100 | > 100 | > 100 | > 100 | – | – | > 100 | > 100 | – | – | – | – | – | – | – | – | – |
| COc1ccc(C2Oc3cc(OC)c(O)cc3[C@@H]2C)cc1 (stereo not given in full) | 72.1 | – | > 100 | > 100 | > 100 | – | – | 35.4 | 44.2 | > 100 | – | – | – | – | – | – | – | – | – |
| Nc1nc(NC(=O)C2=NS(=O)(=O)c3cc(S(N)(=O)=O)c(Cl)cc3N2)n[nH]1 | > 100 | – | > 100 | > 100 | > 100 | > 100 | – | > 100 | > 100 | > 100 | – | – | – | – | – | – | – | – | – |
| O=c1[nH]/c(=C/c2ccc(OCc3ccccc3)cn2)c(=O)[nH]/c1=C/c1cccnc1 | > 100 | 0.71 | > 100 | > 100 | > 75.2 | – | 0.261 | – | – | > 27.6 | – | – | – | – | – | – | – | – | – |
| CC(C)(C)OC(=O)N(CCCN)CCCCN(CCCN)C(=O)OC(C)(C)C | > 100 | – | > 100 | > 100 | > 100 | – | > 100 | > 100 | > 100 | – | – | – | – | – | – | – | – | – | – |
